Key:
[1] = Rest activity (stability) of completely dissolved natamycin in aqueous SDS solution over time, HPLC; type: physicochemical; settings: 1000 ppm natamycin added, 1% SDS
Description: This method was used to analyze the amount of
active natamycin in a water-based mixture of several components. The method was HPLC based using the International Dairy Federation (Provisional ADF Standard 140, 1987) with a Lichrosorb RP 8 column. Detection was by UV at 303 nm with a range of 0.1-4 mg/L with an injection volume of 20 μl. Sample preparation was carried out by weighing 2 gram prepared formulation with an accuracy of 1 mgram in a measuring flask. 4 ml demineralized water (demiwater) was added and the mixture was stirred for 15 minutes to get a homogeneous suspension. Subsequently 80 ml ethanol was added and the mixture was stirred for 10 minutes. After ultrasonic treatment the solution was filled up to 100 ml with de-minaralized water and then diluted and/or filtered (0.2 μm) before injecting. The amount of active natamycin was calculated as ppm against a series of standards of known natamycin concentrations.
The mixtures were made by adding 2 gram Delvocid (Natamycin) together with 50 gram 20% SDS solution and eventually additives to a final weight of 1000 gram with demineralised (=demi) water.
This crude mixture was mixed for 5 minutes to obtain a homogeneous mixture and accordingly adjusted to pH 4-6 with ammonia.
The obtained formulations with an added amount of active natamycin of 1000 ppm were stored at 18° C. in a closed pot in the dark.
The prepared mixtures were measured over time for the amount of active natamycin using the analytical method as described hereinabove.
The mixture as described in Example 1 was adjusted to pH=4.0 or pH=6.0 and the natamycin activity was measured over time.
The mixture as described in Example 1 is combined with 1000 ppm di-sodium-EDTA, adjusted to pH 6.0 and the natamycin activity was measured over time.

[2] = Visual solubility of polyene fungicides in water and water + SDS; type: physicochemical; settings: soluble if mixture is clear
Description: Mixtures are made with several polyene fungicides in several concentrations The used polyene fungicides are nystatin, amphotericin and natamycin. The solubility rate is measured visually of the polyene fungicides in demineralized water as such or according to example 1 in combination with SDS to a final SDS concentration of 1% (w/w). It is soluble if a mixture is clear after one minute stirring at room temperature.

## C[C@@H]1C/C=C/C=C/C=C/C=C/[C@H](O[C@@H]2O[C@H](C)[C@@H](O)[C@H](N)[C@@H]2O)C[C@@H]2O[C@](O)(C[C@@H](O)C[C@H]3O[C@@H]3/C=C/C(=O)O1)C[C@H](O)[C@H]2C(=O)O [Natamycin, natamycin]
[1]; pH = 4.0, 3 weeks, stored at 18° C. in the dark
  Rest activity of completely dissolved natamycin over time: <0.1 ppm
[1]; pH = 4.0, 9 weeks, stored at 18° C. in the dark
  Rest activity of completely dissolved natamycin over time: <0.1 ppm
[1]; pH = 4.0, 1 day, stored at 18° C. in the dark
  Rest activity of completely dissolved natamycin over time: 672 ppm
[1]; pH = 6.0 + Na2EDTA (1000 ppm di-sodium-EDTA), 3 weeks, 18° C. dark
  Rest activity of completely dissolved natamycin over time: 805 ppm
[1]; pH = 6.0 + Na2EDTA (1000 ppm di-sodium-EDTA), 9 weeks, 18° C. dark
  Rest activity of completely dissolved natamycin over time: 560 ppm
[1]; pH = 6.0 + Na2EDTA (1000 ppm di-sodium-EDTA), 1 day, 18° C. dark
  Rest activity of completely dissolved natamycin over time: 1000 ppm
[1]; pH = 6.0, 3 weeks, stored at 18° C. in the dark
  Rest activity of completely dissolved natamycin over time: 444 ppm
[1]; pH = 6.0, 9 weeks, stored at 18° C. in the dark
  Rest activity of completely dissolved natamycin over time: 57 ppm
[1]; pH = 6.0, 1 day, stored at 18° C. in the dark
  Rest activity of completely dissolved natamycin over time: 988 ppm

## C[C@@H]1[C@H](O)[C@@H](C)/C=C/C=C/CC/C=C/C=C/C=C/C=C/C(O[C@H]2O[C@H](C)[C@@H](O)[C@H](N)[C@@H]2O)CC2O[C@](O)(CC(O)C(O)CCC(O)CC(O)CC(O)CC(=O)O[C@H]1C)CC(O)C2C(=O)O (stereo partly shown) [Nystatin]
[2]; 250 ppm polyene fungicide in final mixture, solvent 1% (w/w) SDS
  Solublized after 1 minute stirring at room temperature: Yes
[2]; 250 ppm polyene fungicide in final mixture, solvent Demi-Water
  Solublized after 1 minute stirring at room temperature: No
[2]; 500 ppm polyene fungicide in final mixture, solvent 1% (w/w) SDS
  Solublized after 1 minute stirring at room temperature: Almost
[2]; 1000 ppm polyene fungicide in final mixture, solvent 1% (w/w) SDS
  Solublized after 1 minute stirring at room temperature: No
